Reference: patent US9943566B2, “NF-κB inhibitor composition for skin health” (Geoffrey Brooks Consultants, LLC, priority 2016, dated 2018)

Test system: cultured human fibroblasts
Assay: DNA microarray analysis of gene expression in cultured human fibroblasts treated with peptides
Assay type: cell-based
Settings: for Peptide Fluorescent Intensity: TGFB / Peptide Fluorescent Intensity: TGFBR1 / Peptide Fluorescent Intensity: TGFBR3: TGF Family Molecules
Description: Expression levels for a variety of different genes treated with N-M-A-N-A-K (SEQ ID NO: 1) and A-N-V-A-E-N-A (SEQ ID NO: 2) were determined using DNA microarray analysis of cultured human fibroblasts at BioInnovation Laboratories, Inc., Lakewood, Colo.
The microarrays were scanned with an Axon GenePix 4100A Scanner with the scanning resolution set to 10 μm and analyzed with GenePix Pro software. During the initial scan the PMT gains for the scanner were adjusted such that the Cy5/Cy3 image count ratios were between 0.9 and 1.1.
To derive the standard curve for the assay, the relative fluorescent units versus the known RNA concentrations in μg/ml for the standards were plotted and subjected to regression analysis to establish the line that best fit the data points. Mean RFU values for the test materials and untreated samples were used to estimate the amount of RNA present in each sample.
Because the level of gene expression is related to the fluorescence intensity of the probed gene marker on the microarray, and since it is possible to have differences in labeling efficiency when making the Cy3 and Cy5 probes, it is essential to normalize the fluorescence measurements between the two respective dyes before examining changes in gene expression. As a result, fluorescence intensities for the microarrays were subjected to global normalization. The total fluorescent signal for both dyes was normalized with a correction factor so that the ratio of total intensities for both dyes was equal to one.
The resulting normalized total fluorescent signals for peptides, N-M-A-N-A-K (SEQ ID NO: 1) and A-N-V-A-E-N-A (SEQ ID NO: 2) with a variety of gene samples are shown in Table 1.

[1] = 10 ppm peptide, Additional Genes
[2] = 10 ppm peptide, Extracellular Matrix Genes Regulated by TGF Beta
[3] = 10 ppm peptide, Genes that Regulate Wound Healing (regulated by TGF beta)
[4] = 10 ppm peptide, Molecules that Regulate TGF Beta Expression/Activity
[5] = 10 ppm peptide, TGF Beta Signaling Pathway Molecules
[6] = 10 ppm peptide, Anti-Inflammatory

## ANVAENA (TGF-beta mimic)
[1]
  Peptide Fluorescent Intensity: LOX: 0.974
  Peptide Fluorescent Intensity: OGG1: 1.364
  Peptide Fluorescent Intensity: PLOD: 1.112
  Peptide Fluorescent Intensity: PLOD2: 0.445
  Peptide Fluorescent Intensity: PLOD3: 3.805
  Peptide Fluorescent Intensity: RAD23A: 0.078
  Peptide Fluorescent Intensity: RAD23B: 1.218
  Peptide Fluorescent Intensity: SIRT1: 0.228
  Peptide Fluorescent Intensity: SIRT3: 0.010
  Peptide Fluorescent Intensity: TERT: 0.198
[2]
  Peptide Fluorescent Intensity: COL1A1: 2.198
  Peptide Fluorescent Intensity: COL1A2: 3.669
  Peptide Fluorescent Intensity: COL3A1: 2.987
  Peptide Fluorescent Intensity: COL4A1: 0.910
  Peptide Fluorescent Intensity: COL6A1: 6.282
  Peptide Fluorescent Intensity: COL6A2: 2.902
  Peptide Fluorescent Intensity: COL7: 0.435
  Peptide Fluorescent Intensity: CTGF: 0.076
  Peptide Fluorescent Intensity: EGFR: 1.133
  Peptide Fluorescent Intensity: Fibronectin: 1.407
  Peptide Fluorescent Intensity: IL-6: 1.135
  Peptide Fluorescent Intensity: MMP1: 1.991
  Peptide Fluorescent Intensity: MMP2: 0.034
  Peptide Fluorescent Intensity: PDGFR alpha subunit: 1.330
  Peptide Fluorescent Intensity: TIMP1: 4.567
  Peptide Fluorescent Intensity: Tenascin (TNXB): 1.353
  Peptide Fluorescent Intensity: βIG-H3 (TGFBI): 2.069
[3]
  Peptide Fluorescent Intensity: FGF2: 0.912
  Peptide Fluorescent Intensity: GM-CSF (CSF2): 0.014
  Peptide Fluorescent Intensity: VEGFA: 0.798
[4]
  Peptide Fluorescent Intensity: Activin A beta subunit (INHBB): 0.261
  Peptide Fluorescent Intensity: BMP1: 0.497
  Peptide Fluorescent Intensity: Follistatin (FST): 0.594
  Peptide Fluorescent Intensity: Inhibin (INHA): 0.264
  Peptide Fluorescent Intensity: LTBP (LTBP1): 0.652
  Peptide Fluorescent Intensity: MMP2: 0.034
  Peptide Fluorescent Intensity: YY1: 0.713
[5]
  Peptide Fluorescent Intensity: CBP (CREBBP): 0.375
  Peptide Fluorescent Intensity: SAR1A: 1.905
  Peptide Fluorescent Intensity: SP1: 0.590
  Peptide Fluorescent Intensity: Smad1: 1.325
  Peptide Fluorescent Intensity: Smad2: 0.824
  Peptide Fluorescent Intensity: Smad3: 1.202
  Peptide Fluorescent Intensity: Smad4: 0.374
  Peptide Fluorescent Intensity: Smad6: 0.136
  Peptide Fluorescent Intensity: Smad7: 0.357
  Peptide Fluorescent Intensity: p38MAPK (MAPK14): 0.594
  Peptide Fluorescent Intensity: p300 (EP300): 0.961
10 ppm peptide
  Peptide Fluorescent Intensity: TGFB: 0.113
  Peptide Fluorescent Intensity: TGFBR1: 0.128
  Peptide Fluorescent Intensity: TGFBR3: 0.098
Peptide alone, in words
  impact on anti-inflammatory genes: does not impact anti-inflammatory genes significantly

## Asparagine-Methionine-Alanine-Asparagine-Alanine-Lysine (Asn-Met-Ala-Asn-Ala-Lys) [NMANAK]
10 ppm peptide
  number of anti-inflammatory genes upregulated (COX1, COX411, COX7C, COX8A, DEFB4, IL10RB, IL26, IL27, ILF2, ILDR1): ≥ 10
  Peptide Fluorescent Intensity: TGFB: 1.224
  Peptide Fluorescent Intensity: TGFBR1: 0.373
  Peptide Fluorescent Intensity: TGFBR3: 1.229
[1]
  Peptide Fluorescent Intensity: AQP3: 3.294
  Peptide Fluorescent Intensity: EEF1A1 (cell growth): 6.301
  Peptide Fluorescent Intensity: EEF1A2 (cancer cell growth): 0.067
  Peptide Fluorescent Intensity: EEF1G (aminoacyl transferase - glutathione): 1.928
  Peptide Fluorescent Intensity: LOX: 1.035
  Peptide Fluorescent Intensity: OGG1: 1.176
  Peptide Fluorescent Intensity: PLOD: 1.105
  Peptide Fluorescent Intensity: PLOD2: 1.085
  Peptide Fluorescent Intensity: PLOD3: 4.092
  Peptide Fluorescent Intensity: RAD23A: 0.933
  Peptide Fluorescent Intensity: RAD23B: 0.603
  Peptide Fluorescent Intensity: SIRT1: 0.410
  Peptide Fluorescent Intensity: SIRT3: 0.735
  Peptide Fluorescent Intensity: SIRT 5: 1.482
[6]
  Peptide Fluorescent Intensity: COX1: 2.645
  Peptide Fluorescent Intensity: COX7C: 1.341
  Peptide Fluorescent Intensity: COX8A: 1.803
  Peptide Fluorescent Intensity: COX411: 2.067
  Peptide Fluorescent Intensity: DEFB4: 4.798
  Peptide Fluorescent Intensity: IL10RB: 1.889
  Peptide Fluorescent Intensity: IL26: 2.036
  Peptide Fluorescent Intensity: IL27: 2.257
  Peptide Fluorescent Intensity: ILDR1 (immunoglobin receptor): 1.546
  Peptide Fluorescent Intensity: ILF2: 4.120
[2]
  Peptide Fluorescent Intensity: BMP7: 2.000
  Peptide Fluorescent Intensity: COL1A2: 3.992
  Peptide Fluorescent Intensity: COL3A1: 2.047
  Peptide Fluorescent Intensity: COL6A1: 3.446
  Peptide Fluorescent Intensity: COL6A2: 1.705
  Peptide Fluorescent Intensity: COL7: 1.080
  Peptide Fluorescent Intensity: CTGF: 0.429
  Peptide Fluorescent Intensity: EGFR: 1.159
  Peptide Fluorescent Intensity: ELA2A (elastase): 3.148
  Peptide Fluorescent Intensity: ELN: 0.773
  Peptide Fluorescent Intensity: FGF3 (fibroblast growth factor): 2.000
  Peptide Fluorescent Intensity: MMP1: 1.164
  Peptide Fluorescent Intensity: MMP2: 0.785
  Peptide Fluorescent Intensity: PDGFR alpha subunit: 1.608
  Peptide Fluorescent Intensity: TIMP1: 4.057
  Peptide Fluorescent Intensity: Tenascin (TNXB): 1.752
[3]
  Peptide Fluorescent Intensity: FGF2: 0.679
  Peptide Fluorescent Intensity: VEGFA: 1.385
[4]
  Peptide Fluorescent Intensity: Activin A beta subunit (INHBB): 0.095
  Peptide Fluorescent Intensity: BMP1: 0.837
  Peptide Fluorescent Intensity: Follistatin (FST): 0.665
  Peptide Fluorescent Intensity: Inhibin (INHA): 1.917
  Peptide Fluorescent Intensity: LTBP (LTBP1): 0.268
  Peptide Fluorescent Intensity: YY1: 1.378
[5]
  Peptide Fluorescent Intensity: CBP (CREBBP): 0.743
  Peptide Fluorescent Intensity: SAR1A: 1.632
  Peptide Fluorescent Intensity: SP1: 0.932
  Peptide Fluorescent Intensity: Smad1: 0.918
  Peptide Fluorescent Intensity: Smad2: 0.857
  Peptide Fluorescent Intensity: Smad3: 0.882
  Peptide Fluorescent Intensity: Smad4: 0.454
  Peptide Fluorescent Intensity: Smad6: 1.354
  Peptide Fluorescent Intensity: Smad7: 1.160
  Peptide Fluorescent Intensity: p38MAPK (MAPK14): 1.057
10 ppm peptide, in words
  effect on AQP3 (aquaporin3) and EEf1G (glutathione) genes: upregulated
  effect on genes expressing extra-cellular matrix components, including collagen production genes COL1A2, COL3A1, COL6A1 and COL6A2: upregulation
  effect on genes that control TGF-β expression (YY1, INHA): upregulating
